pEC50: −log10 of the molar value. Calls of active or inactive are those of the source. No cut-off for these calls is given here.
Columns and labels:
[1] = Cytotoxicity against human HePAD38 cells assessed as cell viability incubated for 72 hrs by MTT assay; type: cell-based
Hepatitis B virus [2] = assay: Antiviral activity against HBV infected in doxycycline-induced human HepG2-NTCP cells assessed as reduction in HBsAg secretion in supernatant measured from day 2 to 8 post treatment by time resolved fluoroimmunoassay; type: functional, organism-based; settings: dose microM 2.5-10, time day 2-8
Hepatitis B virus [3] = assay: Antiviral activity against HBV infected in human HuH7 cells assessed as reduction in the expression of viral mRNA at 10 uM incubated for 4 days by FPKM analysis; type: functional, organism-based; settings: Huh-7, time 4.0 day
Hepatitis B virus [4] = assay: Antiviral activity against HBV infected human HepAD38 cells assessed as inhibition of 3.5 kb RNA at 10 uM in absence of tet followed by treating with compound after 24 hrs measured after 4 days by northern blot analysis; type: functional, organism-based; settings: time 4.0 day
Hepatitis B virus [5] = assay: Antiviral activity against HBV infected human HepAD38 cells assessed as HBV cccDNA degradation in presence of tet and LAM at 10 uM obtained up to 8 days post treatment by rolling cycle amplification; type: functional, organism-based; settings: time day <=8
Hepatitis B virus [6] = assay: Antiviral activity against HBV infected human HepAD38 cells assessed as decrease in DP-rcDNA levels pretreated with tet for 2 days measured after 8 days post treatment with compound by southern blot analysis; type: functional, organism-based; settings: time 10.0 day
Hepatitis B virus [7] = assay: Antiviral activity against HBV infected human HepAD38 cells assessed as decrease in reverse-transcripted rcDNA treated with tet and LAM followed by addition of compound by southern blot analysis; type: functional, organism-based; settings: dose microM 1.25-10, time 4.0 day
Hepatitis B virus [8] = assay: Antiviral activity against HBV infected in doxycycline-induced human HepG2-NTCP cells assessed as reduction in HBeAg secretion in supernatant measured from day 2 to 8 post treatment by time resolved fluoroimmunoassay; type: functional, organism-based; settings: dose microM 2.5-10, time day 2-8
Hepatitis B virus [9] = assay: Antiviral activity against HBV infected in human HepAD38 cells assessed as inhibition of viral DNA at 10 uM incubated for 4 days by SYBR green dye based RT-PCR analysis relative to control; type: functional; settings: HePAD38, 96 h, time 4 day
Hepatitis B virus [10] = assay: Antiviral activity against HBV infected in human HuH7 cells transfected with luciferase reporter plasmid assessed as repression of HBV enhancer I at 0.25 to 10 uM incubated for 48 hrs by luciferase assay; type: functional, organism-based; settings: Huh-7, dose microM 0.25-10, time 48.0 hrs
Hepatitis B virus [11] = assay: Antiviral activity against HBV infected human HepAD38 cells assessed as decrease in reverse-transcripted ssDNA treated with tet and LAM followed by addition of compound by southern blot analysis; type: functional, organism-based; settings: dose microM 1.25-10, time 4.0 day
Hepatitis B virus [12] = assay: Antiviral activity against HBV infected in human HepAD38 cells assessed as inhibition of viral DNA incubated for 4 days by SYBR green dye based RT-PCR analysis; type: functional, organism-based; settings: HePAD38, 96 h
Hepatitis B virus [13] = assay: Antiviral activity against HBV infected human HepAD38 cells assessed as reduction in HBeAg secretion preincubated with compound for 4 days measured after 4 days by […] analysis; type: functional, organism-based
Hepatitis B virus [14] = assay: Antiviral activity against HBV infected human HepAD38 cells assessed as reduction in HBV DNA levels preincubated with compound for 4 days measured after 4 days by RT-PCR analysis; type: functional, organism-based
Hepatitis B virus [15] = assay: Antiviral activity against HBV infected human HepAD38 cells assessed as reduction in HBV RNA levels preincubated with compound for 4 days measured after 4 days by RT-PCR analysis; type: functional, organism-based
Hepatitis B virus [16] = assay: Antiviral activity against HBV infected human HepAD38 cells assessed as decrease in HBV cccDNA levels pretreated with tet for 2 days measured after 8 days post treatment with compound by southern blot analysis; type: functional, organism-based; settings: time 10.0 day
Hepatitis B virus [17] = assay: Antiviral activity against HBV infected human HepAD38 cells assessed as inhibition of precRNA at 10 uM in absence of tet followed by treating with compound after 24 hrs measured after 4 days by RT-qPCR analysis; type: functional, organism-based; settings: time 4.0 day
Hepatitis B virus [18] = assay: Antiviral activity against HBV infected human HepAD38 cells assessed as reduction in HBV cccDNA levels pretreated with tet for 2 days measured after 8 days post treatment with compound by rolling-cycle amplification; type: functional, organism-based; settings: time 10.0 day
Hepatitis B virus [19] = assay: Antiviral activity against HBV infected in human HuH7 cells transfected with luciferase reporter plasmid assessed as repression of HBV basal core promoter at 0.25 to 10 uM incubated for 48 hrs by luciferase assay; type: functional, organism-based; settings: Huh-7, dose microM 0.25-10, time 48.0 hrs
Hepatitis B virus [20] = assay: Antiviral activity against HBV infected human HepAD38 cells assessed as decrease in HBV core proteins measured after 4 days by western blot analysis; type: functional, organism-based; settings: dose microM 1.25-10, time 4.0 day
Hepatitis B virus [21] = assay: Antiviral activity against HBV infected human HepAD38 cells assessed as inhibition of total HBV RNA at 10 uM in absence of tet followed by treating with compound after 24 hrs measured after 4 days by RT-qPCR analysis; type: functional, organism-based; settings: time 4.0 day
[22] = Downregulation of ZBED6 in HBV infected human HepAD38 cells assessed as inhibition rate at 10 uM in absence of tet incubated with compound for 4 days followed by RNA extraction with trizol reagent measured by qRT-PCR analysis relative to control; type: functional; settings: Hepatitis B virus, HePAD38, 96 h, time 4 day
[23] = Cytotoxicity against human HepG2 cells assessed as cell viability incubated for 72 hrs by MTT assay; type: cell-based
[24] = Downregulation of ZBTB7B in HBV infected human HepAD38 cells assessed as inhibitory rate at 10 uM in absence of tet incubated with compound for 4 days followed by RNA extraction with trizol reagent and measured by qRT-PCR analysis relative to control; type: functional; settings: Hepatitis B virus, HePAD38, 96 h, time 4 day
Hepatitis B virus [25] = assay: Antiviral activity against HBV infected human HepAD38 cells assessed as degradation of HBV RNA; type: functional, organism-based
Hepatitis B virus [26] = assay: Antiviral activity against HBV infected human HepAD38 cells assessed as inhibition of pgRNA at 10 uM in absence of tet followed by treating with compound after 24 hrs measured after 4 days by RT-qPCR analysis; type: functional, organism-based; settings: time 4.0 day

## C=C1CC[C@H](OC(C)=O)[C@]2(C)[C@@H](OC(C)=O)/C=C/C(=C)[C@H](Cl)[C@@H]3OC(=O)[C@H](C)[C@@]3(O)[C@@H](OC(C)=O)[C@@H]12
[1]
  CC50 at 72 h: > 100000 nM
Hepatitis B virus [2]
  Activity: Dose-dependent effect
Hepatitis B virus [3]
  Activity: Active
Hepatitis B virus [4]
  inhibition: Active
Hepatitis B virus [5]
  Activity: inactive
Hepatitis B virus [6]
  Activity: Active
Hepatitis B virus [7]
  Activity: Dose-dependent effect
Hepatitis B virus [8]
  Activity: Dose-dependent effect
Hepatitis B virus [9]
  inhibition at 10 µM: 64%
Hepatitis B virus [10]
  Activity: Active
Hepatitis B virus [11]
  Activity: Dose-dependent effect
Hepatitis B virus [12]
  pEC50: 6.08
Hepatitis B virus [13]
  pEC50: 5.11
Hepatitis B virus [14]
  pEC50: 6.08
Hepatitis B virus [15]
  pEC50: 5.54
Hepatitis B virus [16]
  Activity: Active
Hepatitis B virus [17]
  inhibition: Active
Hepatitis B virus [18]
  Activity: Active
Hepatitis B virus [19]
  Activity: Active
Hepatitis B virus [20]
  Activity: Dose-dependent effect
Hepatitis B virus [21]
  inhibition: Active
[22]
  inhibition at 10 µM: 28%
[23]
  CC50 at 72 h: > 100000 nM
[24]
  inhibition at 10 µM: 32%
Hepatitis B virus [25]
  Activity: inactive
Hepatitis B virus [26]
  inhibition: Active

— ChEMBL document CHEMBL4725284, “Junceellolide B, a novel inhibitor of Hepatitis B virus” (Bioorg Med Chem, 2020)
